Among the data in ChEMBL document CHEMBL1133835, “A unique ring-expanded acyclic nucleoside analogue that inhibits both adenosine deaminase (ADA) and guanine deaminase (GDA; guanase): synthesis and enzyme inhibition studies of 4,6-diamino-8H-1-hydroxyethoxymethyl-8-iminoimidazo[4,5-e][1,3]diazepine” (Bioorg Med Chem Lett, 2001) are Ki values, retold here.

This test addresses T1, Adenosine deaminase (Bos taurus, UniProt P56658).
T1 sequence (P56658 whole entry): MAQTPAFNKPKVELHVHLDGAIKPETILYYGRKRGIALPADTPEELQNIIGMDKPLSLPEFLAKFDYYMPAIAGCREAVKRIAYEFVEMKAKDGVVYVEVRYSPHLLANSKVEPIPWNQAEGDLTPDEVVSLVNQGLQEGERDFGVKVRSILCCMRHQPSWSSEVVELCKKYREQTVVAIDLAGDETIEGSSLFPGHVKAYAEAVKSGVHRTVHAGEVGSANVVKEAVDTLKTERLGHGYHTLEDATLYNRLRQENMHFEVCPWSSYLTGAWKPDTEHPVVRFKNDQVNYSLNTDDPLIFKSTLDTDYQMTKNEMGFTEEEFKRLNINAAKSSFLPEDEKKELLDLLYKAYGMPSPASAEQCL
Briefly: Binding affinity against Adenosine deaminase from calf intestinal mucosa was determined. It counts as tissue-based.

The term Ki denotes a measure of affinity in units of concentration, obtained from inhibition or displacement.

In turn, `CCCCCC[C@@H]([C@@H](C)O)n1cnc2c(N)ncnc21` [EHNA] registered a Ki of 10 nM.
